Measured values from patent US20180318834A1, “INTEGRATION OF ELECTROCHECMICAL PH MODULATION WITH LAB ON A CHIP TECHNOLOGIES” (Robert Bosch GmbH, priority 2015, published 2018).

Tests used:
[1] = Electrochemical generation of H+ or OH- ions at indium tin oxide electrode surfaces (cyclic voltammetry); type: physicochemical
Text: FIG. 7B: Cyclic voltammetric study of the oxidation of Ascorbic acid test in ITO electrodes. Current increase around 0.25V indicates the start of oxidation at ITO electrodes.
Electrode material used: The electrode material was indium tin oxide. This is a semiconducting electrode surface with very large potential window in an aqueous solution.
Oxidation of ascorbic acid at the electrode surfaces produced H^+ ions and changed the electrode surface pH to a more acidic state:
The electrode potential at which it oxidizes was less than 0.5V for Indium tin oxide material vs Ag/AgCl reference electrode (as shown in FIG. 7). This potential was less than the voltages needed for the oxygen evolution reaction in aqueous solution. The ascorbic acid also acted as a sacrificial species to prevent electrochemical degradation of the surface chemistry.
Reduction of benzoquinone (C6H4O2) into Hydroquinone (C6H6O2) can produce OH^− ions at −0.1V: […]

[2] = target: Green Fluorescent Protein (GFP) (Aequorea victoria, UniProt P42212); experiment: Effect of benzoquinone substitution on protein (GFP) stability, by fluorescence intensity; type: biochemical; conditions: incubation 30 min in phosphate buffered saline, concentration of benzoquinones 0.5 mM
Text: Para-benzoquinones and ortho-benzoquinones (compounds 2, 4, 6, and 9 in FIG. 31) are susceptible to nucleophilic attack at the double bond of the ring (positions 2, 3, 5 and 6 in structure 2 of FIG. 31, positions 3, 4, 5 and 6 in structure 4 of FIG. 31, and positions 2 and 3 in structure 6 of FIG. 31). Introducing substituents at some or all of those positions can mitigate the problem of nucleophilic attack. For example, 1,4-benzoquinone (structure 2 in FIG. 31, where R1, R2, R3 and R4 are H) undergoes Michael addition reaction with amino groups of proteins (Loomis et al., Phytochemistry, 5, 423, (1966) and U.S. Pat. No. 6,753,312 B2). […] Fluorescence intensity of Green Fluorescent Protein (GFP) was measured after incubation with three different benzoquinones in phosphate buffered saline for 30 min (concentration of benzoquinones was 0.5 mM). The difference in fluorescence intensity indicates the varied effect that the different substitutions in benzoquinones have on the stability of GFP. Fluorescence intensity of GFP is indicative of its structural integrity. Losses in fluorescence intensity usually indicate loss of its tertiary structure (protein denaturation) (Yin D. X., Zhu L., Schimke R. T. Anal. Biochem. 1996, 235:195-201).

| electrode potential at which it oxidizes ([1]; Indium tin oxide material vs Ag/AgCl reference electrode) | start of oxidation (current increase) ([1]; cyclic voltammetric study at ITO electrodes) | Compound | potential of reduction into Hydroquinone producing OH- ions ([1]; electro-reduction at indium tin oxide electrode) [V] | loss in GFP fluorescence intensity after incubation [2] [%] |
| --- | --- | --- | --- | --- |
| less than 0.5 V | around 0.25 V | O=C1O[C@H]([C@@H](O)CO)C(O)=C1O [ascorbic acid] |  |  |
|  |  | O=C1C=CC(=O)C=C1 [unsubstituted benzoquinone, 1,4-benzoquinone] | −0.1 | 25 |
